Among the data in patent US5089513A, “5-lipoxygenase inhibitory thiazoles” (ICI Pharma, priority 1988, dated 1992) are IC50 and ED50 values, retold here.

Some results are limits rather than exact numbers.

Test [1] has as its target T1, 5-LO (Homo sapiens, UniProt P09917).
T1 construct: incubating a test compound with heparinised human blood; endogenous in cells; host or cells: leukocytes in heparinised human whole blood
T1 sequence (P09917 1-674): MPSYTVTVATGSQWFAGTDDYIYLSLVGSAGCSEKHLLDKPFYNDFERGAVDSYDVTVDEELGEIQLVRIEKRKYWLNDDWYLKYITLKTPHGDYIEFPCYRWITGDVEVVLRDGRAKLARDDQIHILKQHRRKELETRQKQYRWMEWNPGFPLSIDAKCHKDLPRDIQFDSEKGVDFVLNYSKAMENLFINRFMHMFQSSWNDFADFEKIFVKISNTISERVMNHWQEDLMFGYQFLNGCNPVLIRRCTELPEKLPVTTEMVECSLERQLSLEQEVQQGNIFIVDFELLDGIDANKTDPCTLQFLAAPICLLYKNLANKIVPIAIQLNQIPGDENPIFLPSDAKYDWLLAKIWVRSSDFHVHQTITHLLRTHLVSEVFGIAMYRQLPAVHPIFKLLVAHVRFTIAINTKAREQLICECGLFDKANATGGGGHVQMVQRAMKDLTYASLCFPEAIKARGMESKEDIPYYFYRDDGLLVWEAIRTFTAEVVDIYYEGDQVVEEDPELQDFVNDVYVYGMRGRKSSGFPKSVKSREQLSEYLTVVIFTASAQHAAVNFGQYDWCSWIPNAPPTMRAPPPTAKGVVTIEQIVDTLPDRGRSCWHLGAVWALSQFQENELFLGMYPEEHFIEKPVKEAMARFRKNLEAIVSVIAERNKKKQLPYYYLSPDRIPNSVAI
In words: Test b) heparinised human blood challenged with A23187, LTB4 radioimmunoassay. The class given is cell-based.
Description: b) An in vitro assay system involving incubating a test compound with heparinised human blood, prior to challenge with the calcium ionophore A23187 and then indirectly measuring the inhibitory effects on 5-LO by assaying the amount of LTB4 using the specific radioimmunoassay described by Carey and Forder (F. Carey and R. A. Forder, Brit. […] This test provides an indication of the effects of a test compound against 5-LO and also cyclooxygenase in the presence of blood cells and proteins. It permits the selectivity of the inhibitory effect on 5-LO or cyclooxygenase to be assessed.

The target of test [2] is T2, 5-LO (Rattus norvegicus, UniProt P12527).
T2 construct: blood collection, heparinisation, challenge with A23187 and radioimmunoassay of LTB4 and TxB2; endogenous in cells
T2 sequence (P12527 1-673): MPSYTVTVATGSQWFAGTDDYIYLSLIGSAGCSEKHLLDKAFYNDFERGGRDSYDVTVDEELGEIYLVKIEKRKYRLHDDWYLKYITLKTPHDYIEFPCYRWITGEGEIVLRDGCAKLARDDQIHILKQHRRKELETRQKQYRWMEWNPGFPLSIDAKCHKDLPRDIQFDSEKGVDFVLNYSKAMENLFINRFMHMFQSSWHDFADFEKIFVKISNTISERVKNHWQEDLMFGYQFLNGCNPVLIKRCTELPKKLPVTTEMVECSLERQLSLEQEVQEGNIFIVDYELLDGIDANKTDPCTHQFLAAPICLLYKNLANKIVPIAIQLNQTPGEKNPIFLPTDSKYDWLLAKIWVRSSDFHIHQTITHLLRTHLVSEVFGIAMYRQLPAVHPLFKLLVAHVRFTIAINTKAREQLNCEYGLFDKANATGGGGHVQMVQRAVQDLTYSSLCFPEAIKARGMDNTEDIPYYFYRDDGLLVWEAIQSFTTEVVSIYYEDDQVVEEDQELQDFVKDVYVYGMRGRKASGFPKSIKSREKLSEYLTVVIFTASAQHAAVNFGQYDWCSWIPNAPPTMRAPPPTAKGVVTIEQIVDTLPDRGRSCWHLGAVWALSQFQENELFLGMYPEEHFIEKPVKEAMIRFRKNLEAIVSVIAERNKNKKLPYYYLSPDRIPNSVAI
In words: Test c) ex vivo assay, blood collected after oral administration, A23187 challenge, LTB4 radioimmunoassay. In kind it is in vivo.

For the next test, the target named is T3, cyclooxygenase (Homo sapiens, UniProt P23219).
T3 construct: incubating a test compound with heparinised human blood; endogenous in cells; host or cells: blood cells (mainly platelets, own knowledge) in heparinised human whole blood
The test can be described thus: Test b) heparinised human blood challenged with A23187, TxB2 radioimmunoassay. In kind it is cell-based. The procedure:
b) An in vitro assay system involving incubating a test compound with heparinised human blood, prior to challenge with the calcium ionophore A23187 and then indirectly measuring the inhibitory effects on 5-LO by assaying the amount of LTB4 using the specific radioimmunoassay described by Carey and Forder (F. Carey and R. A. Forder, Brit. J. Pharmacol. 1985, 84, 34P) which involves the use of a protein-LTB4 conjugate produced using the procedure of Young et alia (Prostaglandins, 1983, 26(4),605-613). The effects of a test compound on the enzyme cyclooxygenase (which is involved in the alternative metabolic pathway for arachidonic acid and gives rise to prostaglandins, thromboxanes and related metabolites) may be measured at the same time using the specific radioimmunoassay for thromboxane B2 (TxB2) described by Carey and Forder (see above). This test provides an indication of the effects of a test compound against 5-LO and also cyclooxygenase in the presence of blood cells and proteins. It permits the selectivity of the inhibitory effect on 5-LO or cyclooxygenase to be assessed.

The target of test [3] is T4, 5-LO (Cavia porcellus, UniProt A0A286X958).
T4 construct: 5-LO isolated from guinea pig neutrophils; endogenous in cells; host or cells: guinea pig neutrophils (enzyme isolated, soluble, cell-free)
T4 sequence (A0A286X958 1-674): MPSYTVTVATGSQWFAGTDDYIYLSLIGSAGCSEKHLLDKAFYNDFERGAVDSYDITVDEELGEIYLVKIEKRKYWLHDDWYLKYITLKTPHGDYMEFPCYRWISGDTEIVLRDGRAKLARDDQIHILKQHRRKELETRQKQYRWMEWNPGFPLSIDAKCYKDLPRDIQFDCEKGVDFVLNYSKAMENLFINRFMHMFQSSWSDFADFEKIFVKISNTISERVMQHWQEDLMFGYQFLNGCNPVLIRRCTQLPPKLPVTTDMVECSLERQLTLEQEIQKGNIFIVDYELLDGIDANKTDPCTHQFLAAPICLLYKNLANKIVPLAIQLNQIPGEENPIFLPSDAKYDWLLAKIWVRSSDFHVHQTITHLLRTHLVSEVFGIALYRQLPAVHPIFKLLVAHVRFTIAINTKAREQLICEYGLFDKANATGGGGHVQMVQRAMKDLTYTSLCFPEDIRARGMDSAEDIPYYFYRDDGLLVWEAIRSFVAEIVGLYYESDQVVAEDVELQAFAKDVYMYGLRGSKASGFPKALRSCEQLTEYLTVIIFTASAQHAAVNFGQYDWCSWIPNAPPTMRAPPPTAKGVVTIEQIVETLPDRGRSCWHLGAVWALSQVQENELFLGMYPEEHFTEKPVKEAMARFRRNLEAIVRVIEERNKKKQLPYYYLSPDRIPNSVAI
In words: Test a) in vitro spectrophotometric cell free enzyme assay using 5-LO isolated from guinea pig neutrophils. In kind it is biochemical. The source says:
a) An in vitro spectrophotometric enzyme assay system, which assesses the inhibitory properties of a test compound in a cell free system using 5-LO isolated from guinea pig neutrophils and as described by D.Aharony and R. L. Stein (J. Biol. Chem., 1986, 261(25), 11512-11519). This test provides a measure of the intrinsic inhibitory properties against soluble 5-LO in an extracellular environment.

T3 sequence (P23219 24-599): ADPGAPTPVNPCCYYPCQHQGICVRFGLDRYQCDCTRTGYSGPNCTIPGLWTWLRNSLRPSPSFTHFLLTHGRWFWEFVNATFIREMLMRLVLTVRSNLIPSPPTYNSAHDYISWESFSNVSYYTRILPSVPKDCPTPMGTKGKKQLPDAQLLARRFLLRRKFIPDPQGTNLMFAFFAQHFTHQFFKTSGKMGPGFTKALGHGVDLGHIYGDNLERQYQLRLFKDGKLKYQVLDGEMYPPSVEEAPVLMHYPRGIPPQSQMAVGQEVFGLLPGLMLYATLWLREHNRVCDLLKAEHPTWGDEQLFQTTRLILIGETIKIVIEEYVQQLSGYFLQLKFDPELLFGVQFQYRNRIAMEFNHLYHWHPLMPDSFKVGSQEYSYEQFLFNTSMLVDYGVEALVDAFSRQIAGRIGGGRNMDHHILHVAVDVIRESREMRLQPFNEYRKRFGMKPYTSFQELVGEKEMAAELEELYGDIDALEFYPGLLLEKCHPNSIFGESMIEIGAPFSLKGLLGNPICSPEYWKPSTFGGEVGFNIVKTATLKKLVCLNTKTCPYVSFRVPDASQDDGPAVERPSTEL

By IC50 is commonly meant the concentration at which inhibition is half-maximal. A high value points to weaker potency. In general, ED50 refers to the midpoint of the dose-response relation. A low value points to an effect at a small dose. In the case of `CCC(OC)(c1cccc(OCC#Cc2ccc(F)cc2)c1)c1nccs1` (centres unmarked) [2-[1-[3-(3-(4-fluorophenyl)prop-2-ynyloxy)phenyl]-1-methoxypropyl]thiazole], 40 nM corresponded to half-maximal inhibition on 5-LO [1] (IC50). For the same compound, the 50% effect level at 5-LO [2] (ED50) was put at a dose of 10 mg/kg.
On to `CCC(OC)(c1cccc(OCc2ccc3ccccc3c2)c1)c1nccs1` (centres unmarked) [2-[1-methoxy-1-[3-(naphth-2-ylmethoxy)phenyl]propyl]thiazole], for which the IC50 against cyclooxygenase was over 100000 nM; on 5-LO [3], 100 nM. Further, the 50% effect level at 5-LO [2] (ED50) was put at a dose of 10 mg/kg.
